According to paper PMC4335872, “Pharmacokinetic-Pharmacodynamic Analysis of Spiroindolone Analogs and KAE609 in a Murine Malaria Model” (Antimicrobial Agents and Chemotherapy, 2015):

How the values were obtained:
[1] = system: P. vivax and P. falciparum; conditions: cited from earlier work
[2] = Caco-2 permeability; type: in vitro ADME; conditions: human, Caco-2; apical to basolateral
[3] = system: P. berghei; experiment: Dose fractionation and PK-PD analysis of KAE609 in the P. berghei malaria mouse model; type: in vivo, NMRI mice; conditions: for Parasitemia (mean ± SD): 48 h posttreatment; for %T>TRE: simulated, 48-h period
Procedure: The total daily doses were either administered as a single dose (24 h postinfection) or divided into two oral doses (BID) or three oral doses (TID) per day (Table 1). Four mice were used for each regimen, with the control mice receiving vehicle only. Parasitemia, expressed as parasitized red blood cells (pRBCs) of >100 RBCs, was determined at 72 h postinfection (48 h after the initiation of treatment with KAE609) using standard flow cytometry techniques ([39]).
The concentration of compounds that inhibited 99% of P. berghei growth (IC99) was used to calculate the threshold (TRE = 2 × IC99) and the PK-PD indices. […] The Cmax/TRE, AUC0–48/TRE, and %T>TRE at different doses and dosing regimens were calculated using the Berkeley Madonna Software (version 8.0.1) (Berkeley Madonna, University of California, Berkeley, Berkeley, CA).
The relationship between PK-PD indices (log-transformed Cmax/TRE, log-transformed AUC0–48/TRE, and %T>TRE) and log-transformed parasitemia was analyzed by nonlinear regression analysis. An exploratory analysis of the PK-PD data was done using various models, such as maximum effect (Emax), sigmoid Emax, and with and without slope. A sigmoidal dose-response (variable-slope) model without constants was fitted to the data. GraphPad Prism version 5.02 for Windows (GraphPad Software, San Diego, CA, USA) was the software used for this analysis. The model choice was guided initially by a visual inspection of the y-by-x plots and then by correlation analysis and by evaluating the standard error of the estimate. The parasitemia (P) measures at any value of each different PK-PD index are expressed in equation 1, where EZ50 (otherwise referred to as EC50) is the value of the specific PK-PD index (Cmax/TRE, AUC0–48/TRE, and %T>TRE, respectively) required to produce 50% of the maximal effect, x is any of the PK-PD indices, and Pmax, Pmin, and s are as described previously. The values of x corresponding to the maximum reduction in parasitemia were derived by interpolation based on equation 1.

[4] = system: P. berghei GFP ANKA malaria strain PbGFPCON; set-up: method as in PMID 20813948; conditions: cited from earlier work
[5] = patients, 30 mg daily for 3 days
[6] = interpolated from PK-PD model, 48 h observation
[7] = total dose 0.5 mg/kg p.o. as 1 x 0.5 mg/kg
[8] = total dose 0.5 mg/kg p.o. as 2 x 0.25 mg/kg (every 12 h)
[9] = total dose 0.5 mg/kg p.o. as 3 x 0.17 mg/kg (every 8 h)
[10] = total dose 1 mg/kg p.o. as 1 x 1 mg/kg
[11] = total dose 1 mg/kg p.o. as 2 x 0.5 mg/kg (every 12 h)
[12] = total dose 1 mg/kg p.o. as 3 x 0.33 mg/kg (every 8 h)
[13] = total dose 2 mg/kg p.o. as 1 x 2 mg/kg
[14] = total dose 2 mg/kg p.o. as 2 x 1 mg/kg (every 12 h)
[15] = total dose 2 mg/kg p.o. as 3 x 0.67 mg/kg (every 8 h)
[16] = total dose 4 mg/kg p.o. as 1 x 4 mg/kg
[17] = total dose 4 mg/kg p.o. as 2 x 2 mg/kg (every 12 h)
[18] = total dose 4 mg/kg p.o. as 3 x 1.33 mg/kg (every 8 h)
[19] = total dose 8 mg/kg p.o. as 1 x 8 mg/kg
[20] = total dose 8 mg/kg p.o. as 2 x 4 mg/kg (every 12 h)
[21] = total dose 8 mg/kg p.o. as 3 x 2.67 mg/kg (every 8 h)

SMILES: C[C@H]1Cc2c([nH]c3cc(Cl)c(F)cc23)[C@@]2(N1)C(=O)Nc1ccc(Cl)cc12 [(+)-7 (KAE609)]
- Clinical outcome ([1]; 3-day dosing regimen of 30 mg daily, P. vivax and P. falciparum malaria patients): clearing parasitemia
- AUC (average of two cohorts) [1, 5]: 14,300 ng · h/ml
- Cmax (average of two cohorts) [1, 5]: 855 ng/mL
- Papp A→B [2]: 1.69 ×10⁻⁶ cm/s
- Type of killing suggested by PK-PD analysis ([3]; P. berghei malaria mouse model): time-dependent rather than concentration-dependent killing
- AUC for reduction in parasitemia in the P. berghei murine malaria model ([3]; TRE = 48 ng/ml): 28,176 ng · h/ml
- Cmax for reduction in parasitemia in the P. berghei murine malaria model ([3]; TRE = 48 ng/ml): 1,440 ng/ml
- Cmax needed to reduce parasitemia by 50% in vivo ([3]; as derived from Cmax/TRE (Table 5)): 260 ng/mL
- AUC0–48/TRE ratio likely to result in the maximum reduction in parasitemia [3, 6]: 587
- Cmax/TRE ratio likely to result in the maximum reduction in parasitemia [3, 6]: 30
- T>TRE likely to result in the maximum reduction in parasitemia [3, 6]: 100%
- Hill slope, value (95% CI), PK-PD model for %T>TRE ([3]; parasitemia vs %T>TRE): −0.031 (−0.037 to −0.024)
- Pmax, value (95% CI), PK-PD model for %T>TRE ([3]; parasitemia vs %T>TRE): 53.09 (32.28 to 87.50)
- Pmin, value (95% CI), PK-PD model for %T>TRE ([3]; parasitemia vs %T>TRE): 0.15 (0.12 to 0.20)
- Hill slope, value (95% CI), PK-PD model for AUC0–48/TRE ([3]; parasitemia vs AUC0–48/TRE): −1.63 (−2.04 to −1.22)
- Pmax, value (95% CI), PK-PD model for AUC0–48/TRE ([3]; parasitemia vs AUC0–48/TRE): 32.66 (25.06 to 42.56)
- Pmin, value (95% CI), PK-PD model for AUC0–48/TRE ([3]; parasitemia vs AUC0–48/TRE): 0.13 (0.09 to 0.20)
- Parasitemia (mean ± SD) [3, 7]: 28.82 ± 4.49%
- %T>TRE [3, 7]: 4.3%
- Parasitemia (mean ± SD) [3, 8]: 38.28 ± 2.95%
- %T>TRE [3, 8]: 0%
- Parasitemia (mean ± SD) [3, 9]: 35.37 ± 5.32%
- %T>TRE [3, 9]: 0%
- Parasitemia (mean ± SD) [3, 10]: 17.82 ± 3.05%
- %T>TRE [3, 10]: 10.7%
- Parasitemia (mean ± SD) [3, 11]: 18.19 ± 6.81%
- %T>TRE [3, 11]: 8.8%
- Parasitemia (mean ± SD) [3, 12]: 20.31 ± 5.71%
- %T>TRE [3, 12]: 0%
- Parasitemia (mean ± SD) [3, 13]: 5.64 ± 1.69%
- %T>TRE [3, 13]: 23.0%
- Parasitemia (mean ± SD) [3, 14]: 6.48 ± 3.94%
- %T>TRE [3, 14]: 22.7%
- Parasitemia (mean ± SD) [3, 15]: 10.83 ± 4.67%
- %T>TRE [3, 15]: 22.3%
- Parasitemia (mean ± SD) [3, 16]: 0.63 ± 0.57%
- %T>TRE [3, 16]: 54.5%
- Parasitemia (mean ± SD) [3, 17]: 0.43 ± 0.38%
- %T>TRE [3, 17]: 56.1%
- Parasitemia (mean ± SD) [3, 18]: 0.55 ± 0.28%
- %T>TRE [3, 18]: 57.3%
- Parasitemia (mean ± SD) [3, 19]: 0.15 ± 0.03%
- %T>TRE [3, 19]: 99.9%
- Parasitemia (mean ± SD) [3, 20]: 0.18 ± 0.04%
- %T>TRE [3, 20]: 99.8%
- Parasitemia (mean ± SD) [3, 21]: 0.16 ± 0.02%
- %T>TRE [3, 21]: 99.8%
- Single oral dose giving 50% reduction in parasitemia ([4]; P. berghei malaria mouse model): 1.2 mg/kg
- Single oral dose giving 90% reduction in parasitemia ([4]; P. berghei malaria mouse model): 2.7 mg/kg
- Single oral dose giving 99% reduction in parasitemia ([4]; P. berghei malaria mouse model): 5.3 mg/kg
- Cure rate ([4]; single dose of 30 mg/kg): 50%
- Animals cured ([4]; single oral dose of 100 mg/kg): 100%
- Cure ([4]; thrice-daily oral doses of 50 mg/kg): complete cure
